Tested on: Corynebacterium minutissimum
Test: Zone of Inhibition test on inoculated agar plates
Format: cell-based
Settings: for Zone of Inhibition (mm): from the edge of 2 cm disk, 0.2 g stick or approx. 0.6 g neat, 37° C., 48 hrs
Description: A commercially available regular Mennen Speed Stick (MSS) deodorant stick, an Ultimate Mennen Speed Stick deodorant stick (containing triclosan as a control) and the PG-free deodorant stick containing glycerin were tested with a Zone Of Inhibition test using 2 cm Webril® (Fiberweb, Gray Court, S.C.) cotton disks on inoculated plates. Also, as controls: water, neat (undiluted) PG and neat glycerin were tested.
Zone of Inhibition Test method: To the disks was added 0.2 g of the stick products or approximately 0.6 g (enough to just saturate the disk) of the neat controls. The disks were then inverted and placed face down on an inoculated agar plate. The agar plates were streaked beforehand (30 minutes) such that a bacterial lawn of Corynebacterium minutissimum at a concentration of 10^6/ml was created covering the entire plate surface. The plates were then incubated at 37° C. for 48 hrs.
Zones of inhibition were measured in millimeters (mm) from the edge of the disk. A greater zone equals increased bacterial growth inhibition.

Structure (SMILES)	Zone of inhibition result in words	Zone of Inhibition (mm)
OCC(O)CO [Glycerin neat, glycerin]	small zone	1 mm
CC(O)CO (stereo not drawn) [PG neat, propylene glycol]		2.5 mm
